Experimental data reported in patent US20170008888A1 (KYORIN PHARMACEUTICAL CO., LTD., priority 2014, published 2017).

What was measured:
ERK5 = target: T1, ERK5 (Homo sapiens, UniProt Q13164); experiment: Probe-based (AX9989 acyl phosphate ATP probe) kinase profiling in Jurkat lysate: ERK5; assay type: binding; conditions: for IC50: Jurkat lysate; for inhibition at 10 µM: screening concentration 10 μM, read-out: ERK5 Inhibition % at indicated screening concentration; for inhibition at 1 µM: screening concentration 1.0 μM
T1 construct: screened for activity against several kinases in Jurkat cells; endogenous in cells; host or cells: Jurkat cell lysate
Method in brief: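 ERK5 IC50 values came from percent inhibition at the screening concentration, measured as loss of LC/MS signal of probe-labelled active-site peptides. Compound was added for 15 min at room temperature to Jurkat lysate (5 mg/ml, 20 mM MnCl2) before labelling with AX9989 ATP acyl phosphate probe at 5 μM.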

AurA = target: T2, AurA (Homo sapiens, UniProt O14965); experiment: Probe-based (AX9989) kinase profiling in Jurkat lysate: AurA; assay type: binding; conditions: for inhibition at 10 µM: screening concentration 10 μM, read-out: AurA Inhibition % at indicated screening concentration; for inhibition at 1 µM: screening concentration 1.0 μM
T2 construct: screened for activity against several kinases in Jurkat cells; endogenous in cells; host or cells: Jurkat cell lysate
T2 sequence (O14965 1-403): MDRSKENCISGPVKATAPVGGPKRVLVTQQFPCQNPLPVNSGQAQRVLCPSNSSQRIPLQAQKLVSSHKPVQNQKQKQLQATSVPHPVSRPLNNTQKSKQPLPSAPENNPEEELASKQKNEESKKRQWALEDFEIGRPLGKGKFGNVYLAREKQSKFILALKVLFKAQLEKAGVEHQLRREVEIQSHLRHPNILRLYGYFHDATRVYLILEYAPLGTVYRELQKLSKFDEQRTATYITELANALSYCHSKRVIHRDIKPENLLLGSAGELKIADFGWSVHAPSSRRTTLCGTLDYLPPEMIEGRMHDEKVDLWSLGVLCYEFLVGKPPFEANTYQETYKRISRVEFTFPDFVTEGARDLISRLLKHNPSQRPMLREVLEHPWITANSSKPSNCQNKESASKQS
Method in brief: (§1)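 Read-out: LC/MS intensity of desthiobiotinylated kinase active-site peptides, percent inhibition normalized to no-compound lysate. Jurkat lysate with 20 mM MnCl2 received compound for 15 min at room temperature, then 5 μM AX9989 probe; duplicates.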

AurB or AurC = experiment: Probe-based (AX9989) kinase profiling in Jurkat lysate: AurB or AurC; assay type: binding; conditions: for AurB or AurC Inhibition % at indicated screening concentration: screening concentration 10 μM
Method in brief: as §1

JAK1 = target: T3, JAK1 (Homo sapiens, UniProt P23458); experiment: Probe-based (AX9989) kinase profiling in Jurkat lysate: JAK1; assay type: binding; conditions: for inhibition at 10 µM: screening concentration 10 μM, read-out: JAK1 Inhibition % at indicated screening concentration; for inhibition at 1 µM: screening concentration 1.0 μM
T3 construct: screened for activity against several kinases in Jurkat cells; endogenous in cells; host or cells: Jurkat cell lysate
Method in brief: as §1

AMPKa1 or AMPKa2 = experiment: Probe-based (AX9989) kinase profiling in Jurkat lysate: AMPKa1 or AMPKa2; assay type: binding; conditions: for AMPKa1 or AMPKa2 Inhibition % at indicated screening concentration: screening concentration 10 μM
Method in brief: as §1

TAO2 = target: T4, TAO2 (Homo sapiens, UniProt Q9UL54); experiment: Probe-based (AX9989) kinase profiling in Jurkat lysate: TAO2; assay type: binding; conditions: for inhibition at 10 µM: screening concentration 10 μM, read-out: TAO2 Inhibition % at indicated screening concentration; for inhibition at 1 µM: screening concentration 1.0 μM
T4 construct: screened for activity against several kinases in Jurkat cells; endogenous in cells; host or cells: Jurkat cell lysate
T4 sequence (Q9UL54 1-1235): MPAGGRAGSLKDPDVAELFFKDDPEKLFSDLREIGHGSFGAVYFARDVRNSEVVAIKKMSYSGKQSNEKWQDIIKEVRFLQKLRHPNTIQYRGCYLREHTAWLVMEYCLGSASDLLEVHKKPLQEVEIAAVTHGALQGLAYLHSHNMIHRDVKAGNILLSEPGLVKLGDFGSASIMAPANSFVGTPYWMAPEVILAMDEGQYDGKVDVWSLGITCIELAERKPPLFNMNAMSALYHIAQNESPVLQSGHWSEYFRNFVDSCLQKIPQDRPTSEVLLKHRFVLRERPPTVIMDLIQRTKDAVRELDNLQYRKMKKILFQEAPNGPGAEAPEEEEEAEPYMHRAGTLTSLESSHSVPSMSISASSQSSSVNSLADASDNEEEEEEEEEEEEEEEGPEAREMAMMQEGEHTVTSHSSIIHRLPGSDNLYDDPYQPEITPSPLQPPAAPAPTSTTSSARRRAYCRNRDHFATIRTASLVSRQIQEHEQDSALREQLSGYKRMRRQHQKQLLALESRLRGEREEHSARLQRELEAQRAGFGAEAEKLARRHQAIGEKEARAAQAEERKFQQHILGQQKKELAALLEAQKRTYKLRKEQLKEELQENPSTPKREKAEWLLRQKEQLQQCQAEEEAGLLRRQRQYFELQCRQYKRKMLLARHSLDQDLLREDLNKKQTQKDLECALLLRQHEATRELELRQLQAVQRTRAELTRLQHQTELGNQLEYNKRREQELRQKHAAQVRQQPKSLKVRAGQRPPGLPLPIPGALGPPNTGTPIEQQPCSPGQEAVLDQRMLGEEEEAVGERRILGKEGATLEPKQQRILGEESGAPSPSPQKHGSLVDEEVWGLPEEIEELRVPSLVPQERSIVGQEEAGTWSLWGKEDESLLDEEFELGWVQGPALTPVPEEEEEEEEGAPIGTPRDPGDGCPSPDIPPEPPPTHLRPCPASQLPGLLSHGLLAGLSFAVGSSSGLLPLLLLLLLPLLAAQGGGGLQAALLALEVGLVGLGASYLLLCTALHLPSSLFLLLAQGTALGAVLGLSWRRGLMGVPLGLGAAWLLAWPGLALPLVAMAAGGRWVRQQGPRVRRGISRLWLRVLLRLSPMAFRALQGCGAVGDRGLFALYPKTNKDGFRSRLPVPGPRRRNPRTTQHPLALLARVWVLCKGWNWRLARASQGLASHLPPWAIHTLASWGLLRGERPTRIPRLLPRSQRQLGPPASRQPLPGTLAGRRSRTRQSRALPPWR
Method in brief: as §1

ACK = target: T5, ACK (Homo sapiens, UniProt Q07912); experiment: Probe-based (AX9989) kinase profiling in Jurkat lysate: ACK; assay type: binding; conditions: for inhibition at 10 µM: screening concentration 10 μM, read-out: ACK Inhibition % at indicated screening concentration; for inhibition at 1 µM: screening concentration 1.0 μM
T5 construct: screened for activity against several kinases in Jurkat cells; endogenous in cells; host or cells: Jurkat cell lysate
Method in brief: as §1

ABL or ARG = experiment: Probe-based (AX9989) kinase profiling in Jurkat lysate: ABL or ARG; assay type: binding; conditions: for ABL or ARG Inhibition % at indicated screening concentration: screening concentration 10 μM
Method in brief: as §1

human PBMCs = experiment: Human PBMC TNF-α response to endotoxin (ELISA); assay type: cell-based; conditions: 0.1 μg/ml LPS 16 h, read-out: EC50 for the inhibition of the human PBMC TNF-α response to endotoxin, ave. ± S.D.
Procedure: Human PBMCs (Astarte Biologics, Redmond, Wash.) were seeded at 2e6 cells/ml in RPMI 1640 containing 10% (v/v) charcoal-dextran treated, heat inactivated FBS (Omega Scientific, Tarzana, Calif.), 0.05 mM 2-Mercaptoethanol (Sigma-Aldrich, St. Louis, Mo.), and 1×Pen/Strep Amphotericin B (Lonza, Allendale, N.J.). Cells were pre-treated with test compounds (10 μM down by ⅕ in a 4-point serial dilution series) for 1 h at 37° C. in a humidified atmosphere at 5% CO2. Cells were then stimulated with 0.1 μg/ml lipopolysaccharide (LPS) from E. coli 0111:B4 (EMD Millipore, Billerica, Mass.) for 16 h at 37° C. in a humidified atmosphere at 5% CO2. Supernatant was collected and a 25-fold dilution was analyzed for TNF-α concentration using an ELISA kit from Life Technologies (Grand Island, N.Y.) according to the manufacturer's instructions. Absorbance at 450 nm was read using the Synergy 2 multi-detection microplate reader (BioTek Instruments, Winooski, Vt.).

[1] = calculated from percent inhibition and screening concentration, AX9989 probe
[2] = calculated from percent inhibition of AX9989 labeling and the screening concentration
[3] = read-out: Kinase inhibition % at indicated screening concentration: ERK5
[4] = read-out: Kinase inhibition % at indicated screening concentration: AurA
[5] = read-out: Kinase inhibition % at indicated screening concentration: JAK1
[6] = read-out: Kinase inhibition % at indicated screening concentration: TAO2
[7] = read-out: Kinase inhibition % at indicated screening concentration: ACK

T3 sequence (P23458 whole entry): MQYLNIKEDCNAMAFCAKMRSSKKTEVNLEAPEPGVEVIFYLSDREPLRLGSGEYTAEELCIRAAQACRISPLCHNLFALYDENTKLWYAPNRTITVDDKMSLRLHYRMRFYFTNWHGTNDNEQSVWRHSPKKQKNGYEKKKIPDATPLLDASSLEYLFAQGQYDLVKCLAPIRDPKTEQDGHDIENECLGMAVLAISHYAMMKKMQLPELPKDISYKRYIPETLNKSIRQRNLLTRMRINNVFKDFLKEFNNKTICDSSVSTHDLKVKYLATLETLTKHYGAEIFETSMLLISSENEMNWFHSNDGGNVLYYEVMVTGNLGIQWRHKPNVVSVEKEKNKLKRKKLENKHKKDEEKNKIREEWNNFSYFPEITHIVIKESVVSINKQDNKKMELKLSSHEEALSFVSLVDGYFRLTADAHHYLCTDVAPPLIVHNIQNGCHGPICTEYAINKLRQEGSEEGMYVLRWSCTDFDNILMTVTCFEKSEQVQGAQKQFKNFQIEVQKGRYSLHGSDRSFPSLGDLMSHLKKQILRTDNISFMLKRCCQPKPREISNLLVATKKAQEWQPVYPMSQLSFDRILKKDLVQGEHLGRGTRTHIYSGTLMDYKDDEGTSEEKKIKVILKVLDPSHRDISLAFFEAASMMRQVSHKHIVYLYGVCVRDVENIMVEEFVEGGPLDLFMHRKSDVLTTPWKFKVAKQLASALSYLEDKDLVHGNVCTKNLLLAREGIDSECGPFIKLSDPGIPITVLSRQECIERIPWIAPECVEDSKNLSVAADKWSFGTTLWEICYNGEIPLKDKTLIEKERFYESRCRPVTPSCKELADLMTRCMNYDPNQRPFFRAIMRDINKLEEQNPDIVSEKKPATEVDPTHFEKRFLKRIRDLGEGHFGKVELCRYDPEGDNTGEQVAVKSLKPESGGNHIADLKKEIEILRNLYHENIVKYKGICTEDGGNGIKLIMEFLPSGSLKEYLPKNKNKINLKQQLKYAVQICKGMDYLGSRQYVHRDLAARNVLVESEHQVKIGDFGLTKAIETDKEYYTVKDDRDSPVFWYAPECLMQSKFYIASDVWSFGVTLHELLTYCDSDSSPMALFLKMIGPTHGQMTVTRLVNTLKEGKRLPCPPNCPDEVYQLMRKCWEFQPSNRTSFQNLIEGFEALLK
T1 sequence (Q13164 whole entry): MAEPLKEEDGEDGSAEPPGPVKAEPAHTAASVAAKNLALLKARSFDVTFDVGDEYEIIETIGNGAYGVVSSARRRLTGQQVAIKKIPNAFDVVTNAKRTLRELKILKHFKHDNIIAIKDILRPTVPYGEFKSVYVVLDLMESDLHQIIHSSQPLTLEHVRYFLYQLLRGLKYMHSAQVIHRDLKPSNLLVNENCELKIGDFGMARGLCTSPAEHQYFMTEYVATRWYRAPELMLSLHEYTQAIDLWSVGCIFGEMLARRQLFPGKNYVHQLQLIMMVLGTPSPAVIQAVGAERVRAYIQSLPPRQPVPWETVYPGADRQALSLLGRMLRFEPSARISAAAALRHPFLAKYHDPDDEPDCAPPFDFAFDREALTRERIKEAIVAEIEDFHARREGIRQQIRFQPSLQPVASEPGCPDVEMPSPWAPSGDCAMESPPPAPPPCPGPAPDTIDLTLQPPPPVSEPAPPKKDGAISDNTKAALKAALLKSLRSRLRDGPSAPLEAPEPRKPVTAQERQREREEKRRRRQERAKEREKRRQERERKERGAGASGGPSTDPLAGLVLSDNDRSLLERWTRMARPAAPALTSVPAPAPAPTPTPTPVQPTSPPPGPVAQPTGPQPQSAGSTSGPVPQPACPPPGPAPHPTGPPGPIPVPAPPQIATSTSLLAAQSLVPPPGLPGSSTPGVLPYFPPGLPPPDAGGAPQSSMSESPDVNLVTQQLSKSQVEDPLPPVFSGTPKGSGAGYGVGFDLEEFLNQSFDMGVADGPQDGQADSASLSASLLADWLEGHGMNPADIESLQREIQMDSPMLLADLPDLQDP
T5 sequence (Q07912 whole entry): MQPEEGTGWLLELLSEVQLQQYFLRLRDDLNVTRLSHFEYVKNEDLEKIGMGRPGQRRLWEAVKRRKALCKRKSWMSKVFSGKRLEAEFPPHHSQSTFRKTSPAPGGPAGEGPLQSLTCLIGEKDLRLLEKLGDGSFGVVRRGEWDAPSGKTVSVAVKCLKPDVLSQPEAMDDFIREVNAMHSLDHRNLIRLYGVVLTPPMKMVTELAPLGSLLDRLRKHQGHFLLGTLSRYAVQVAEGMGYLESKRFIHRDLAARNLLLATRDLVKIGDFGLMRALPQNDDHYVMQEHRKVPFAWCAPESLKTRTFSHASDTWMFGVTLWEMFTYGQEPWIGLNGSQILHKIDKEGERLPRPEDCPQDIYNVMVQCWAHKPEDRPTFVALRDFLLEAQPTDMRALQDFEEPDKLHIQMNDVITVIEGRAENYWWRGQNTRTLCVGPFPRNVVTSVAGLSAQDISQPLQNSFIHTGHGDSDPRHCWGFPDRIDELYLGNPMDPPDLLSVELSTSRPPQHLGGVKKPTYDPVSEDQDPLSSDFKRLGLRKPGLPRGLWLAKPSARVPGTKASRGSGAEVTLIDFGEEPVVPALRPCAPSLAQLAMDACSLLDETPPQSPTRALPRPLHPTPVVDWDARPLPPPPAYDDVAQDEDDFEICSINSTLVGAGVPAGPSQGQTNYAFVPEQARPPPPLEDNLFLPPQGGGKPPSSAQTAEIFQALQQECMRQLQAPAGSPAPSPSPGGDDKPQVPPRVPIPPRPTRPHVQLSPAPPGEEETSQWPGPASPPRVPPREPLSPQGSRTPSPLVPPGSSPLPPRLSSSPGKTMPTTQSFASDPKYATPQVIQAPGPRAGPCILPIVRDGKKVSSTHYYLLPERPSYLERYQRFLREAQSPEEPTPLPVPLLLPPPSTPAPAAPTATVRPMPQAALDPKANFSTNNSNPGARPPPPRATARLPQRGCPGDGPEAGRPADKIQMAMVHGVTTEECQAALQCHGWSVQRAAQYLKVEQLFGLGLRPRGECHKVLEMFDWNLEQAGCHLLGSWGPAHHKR

| SMILES | EC50 (human PBMCs) [nM] | IC50 (ERK5; [2]) [nM] | inhibition at 1 µM (ERK5; [3]) [%] | inhibition at 1 µM (AurA; [4]) [%] | Kinase inhibition % at indicated screening concentration: AurB or AurC (AurB or AurC; screening concentration 1.0 μM) | inhibition at 1 µM (JAK1; [5]) [%] | Kinase inhibition % at indicated screening concentration: AMPKa1 or AMPKa2 (AMPKa1 or AMPKa2; screening concentration 1.0 μM) | inhibition at 1 µM (TAO2; [6]) [%] | inhibition at 1 µM (ACK; [7]) [%] | Kinase inhibition % at indicated screening concentration: ABL or ARG (ABL or ARG; screening concentration 1.0 μM) | further results |
| --- | --- | --- | --- | --- | --- | --- | --- | --- | --- | --- | --- |
| CCOc1cc(C(=O)N2CCC(N3CCCC3)CC2)ccc1Nc1cc2c(cn1)N(C)C(=O)N1C=CC=CC1=N2 [Compound T66] | > 10000 | – | – | – | – | – | – | – | – | – | IC50 (ERK5; [1]): > 500 nM; inhibition at 10 µM (ERK5): 35 to 50%; inhibition at 10 µM (AurA): ≤ 35%; AurB or AurC Inhibition % at indicated screening concentration (AurB or AurC): E (E is ≦35%); inhibition at 10 µM (JAK1): ≤ 35%; AMPKa1 or AMPKa2 Inhibition % at indicated screening concentration (AMPKa1 or AMPKa2): E (E is ≦35%); inhibition at 10 µM (TAO2): ≤ 35%; inhibition at 10 µM (ACK): 50 to 75%; ABL or ARG Inhibition % at indicated screening concentration (ABL or ARG): E (E is ≦35%) |
| Cc1cc(CO)ccc1Nc1cc2c(cn1)N(C)C(=O)c1ccccc1N2C [Compound 85, 3-(4-(hydroxymethyl)-2-methylphenylamino)-5,11-dimethyl-5H-benzo[e]pyrido[3,4-b][1,4]diazepin-10(11H)-one] | 1350 | 101 to 500 | 75 to 90 | ≤ 35 | E (E is ≦35%) | ≤ 35 | E (E is ≦35%) | ≤ 35 | ≤ 35 | E (E is ≦35%) | – |
| CCOc1cc(C(=O)NCCN2CCOCC2)ccc1Nc1cc2c(cn1)N(C)C(=O)c1ccccc1N2C [Compound 5] | 1750 | 101 to 500 | 50 to 75 | ≤ 35 | E (E is ≦35%) | ≤ 35 | E (E is ≦35%) | ≤ 35 | ≤ 35 | D (D is >35% to ≦50%) | – |
| CCOc1cc(C(=O)N2CCC(N3CCN(C)CC3)CC2)ccc1Nc1cc2c(cn1)N(C)C(=O)C1CCCCC1N2C (stereo not drawn) [Compound 68] | > 10000 | > 500 | ≤ 35 | ≤ 35 | E (E is ≦35%) | ≤ 35 | E (E is ≦35%) | ≤ 35 | ≤ 35 | E (E is ≦35%) | – |
| CCOc1cc(CO)ccc1Nc1cc2c(cn1)N(C)C(=O)c1ccccc1N2C [Compound 112] | – | 101 to 500 | – | – | – | – | – | – | – | – | inhibition at 0.1 µM (ERK5; screening concentration 0.1 μM, read-out: Kinase inhibition % at indicated screening concentration: ERK5): 35 to 50%; inhibition at 0.1 µM (AurA; screening concentration 0.1 μM, read-out: Kinase inhibition % at indicated screening concentration: AurA): ≤ 35%; Kinase inhibition % at indicated screening concentration: AurB or AurC (AurB or AurC; screening concentration 0.1 μM): E (E is ≦35%); inhibition at 0.1 µM (JAK1; screening concentration 0.1 μM, read-out: Kinase inhibition % at indicated screening concentration: JAK1): ≤ 35%; Kinase inhibition % at indicated screening concentration: AMPKa1 or AMPKa2 (AMPKa1 or AMPKa2; screening concentration 0.1 μM): E (E is ≦35%); inhibition at 0.1 µM (TAO2; screening concentration 0.1 μM, read-out: Kinase inhibition % at indicated screening concentration: TAO2): ≤ 35%; inhibition at 0.1 µM (ACK; screening concentration 0.1 μM, read-out: Kinase inhibition % at indicated screening concentration: ACK): ≤ 35%; Kinase inhibition % at indicated screening concentration: ABL or ARG (ABL or ARG; screening concentration 0.1 μM): E (E is ≦35%) |
| CCOc1cc(C(=O)N2CCC(N3CCCC3)CC2)ccc1Nc1cc2c(cn1)N(C)S(=O)(=O)c1ccccc1N2C [Compound T2] | – | – | – | – | – | – | – | – | – | – | IC50 (ERK5; [1]): > 500 nM; inhibition at 10 µM (ERK5): 35 to 50%; inhibition at 10 µM (AurA): ≤ 35%; AurB or AurC Inhibition % at indicated screening concentration (AurB or AurC): E (E is ≦35%); inhibition at 10 µM (JAK1): ≤ 35%; AMPKa1 or AMPKa2 Inhibition % at indicated screening concentration (AMPKa1 or AMPKa2): E (E is ≦35%); inhibition at 10 µM (TAO2): ≤ 35%; inhibition at 10 µM (ACK): ≤ 35%; ABL or ARG Inhibition % at indicated screening concentration (ABL or ARG): E (E is ≦35%) |
| Cc1cc(O)ccc1Nc1cc2c(cn1)N(C)C(=O)c1ccccc1N2C [Compound 38] | – | 101 to 500 | 50 to 75 | ≤ 35 | E (E is ≦35%) | ≤ 35 | E (E is ≦35%) | ≤ 35 | ≤ 35 | E (E is ≦35%) | – |
| CCOc1cc(C(=O)N2CCC(N3CCCC3)CC2)ccc1Nc1cc2c(cn1)N(C)C(=O)c1scnc1N2C [Compound 34] | – | – | > 90 | ≤ 35 | E (E is ≦35%) | ≤ 35 | E (E is ≦35%) | ≤ 35 | ≤ 35 | E (E is ≦35%) | – |
